PubChem BioAssay (NCI)
Several values for one entry are separate records, joined by “and”; a condition that tells them apart may be missing. Equal entries are not always repeated.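 Following 48 hours of exposure in 96-well plates, responses at five concentrations were used to interpolate endpoints linearly. GI50 marks 50% less growth. At the TGI there is no net growth.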

Experiments:
Assay in all cases: NCI tumour cell line growth inhibition, 48 h
[1] = test system: T-47D breast
[2] = test system: MDA-MB-435
[3] = test system: TK-10 renal
[4] = test system: HS 578T breast
[5] = test system: SK-MEL-5 melanoma
[6] = test system: HCC-2998 colon
[7] = test system: IGROV1 ovarian
[8] = test system: OVCAR-5 ovarian
[9] = test system: OVCAR-3 ovarian
[10] = test system: SN12C renal
[11] = test system: ACHN renal
[12] = test system: SR leukemia
[13] = test system: SF-295 CNS
[14] = test system: NCI-H226 lung
[15] = test system: NCI-H522 lung
[16] = test system: M14 melanoma
[17] = test system: PC-3 prostate
[18] = test system: LOX IMVI melanoma
[19] = test system: DU-145 prostate
[20] = test system: COLO 205 colon
[21] = test system: HCT-15 colon
[22] = test system: HOP-92 NSCLC
[23] = test system: OVCAR-4 ovarian
[24] = test system: SNB-75 CNS
[25] = test system: OVCAR-8 ovarian
[26] = test system: CCRF-CEM leukemia
[27] = test system: KM12 colon
[28] = test system: HOP-62 NSCLC
[29] = test system: HCT-116 colon
[30] = test system: UO-31 renal
[31] = test system: SK-OV-3 ovarian
[32] = test system: A549 NSCLC
[33] = test system: SF-539 CNS
[34] = test system: MDA-MB-231 breast
[35] = test system: HL-60(TB) leukemia
[36] = test system: SNB-19 CNS
[37] = test system: U251 CNS
[38] = test system: MOLT-4 leukemia
[39] = test system: MALME-3M melanoma
[40] = test system: A498 renal
[41] = test system: HT29 colon
[42] = test system: 786-0 renal
[43] = test system: EKVX NSCLC
[44] = test system: MDA-N
[45] = test system: SK-MEL-28 melanoma
[46] = test system: RPMI-8226 leukemia
[47] = test system: NCI-H460 lung
[48] = test system: SW-620 colon
[49] = test system: CAKI-1 renal
[50] = test system: NCI/ADR-RES ovarian
[51] = test system: NCI-H23 lung
[52] = test system: SK-MEL-2 melanoma
[53] = test system: RXF 393 renal
[54] = test system: K-562 leukemia
[55] = test system: BT-549 breast
[56] = test system: MCF7 breast
[57] = test system: UACC-257 melanoma
[58] = test system: SF-268 CNS
[59] = test system: UACC-62 melanoma

For `Cc1c(F)c(N)c2c(=O)cc(-c3ccc(NC(=O)[C@@H](N)CCCCN)c(F)c3)oc2c1F`, the TGI [1] was 28.7 µM and > 57.3 µM, the TGI [2] was 26.6 µM and 20.5 µM and the TGI [3] was 21.4 µM and 26.4 µM. For the same molecule, the GI50 [4] was 23.5 µM and 11.5 µM, the TGI [4] was 53.4 µM and 45.8 µM and the GI50 [5] was 13.2 µM and 2.63 µM. For the same molecule, the TGI [5] was 27.4 µM and 27.2 µM, the GI50 [6] was 0.253 µM and 0.769 µM and the TGI [6] was 18.7 µM and 19.7 µM. For the same molecule, the TGI [7] was 19.5 µM and 18.1 µM, the GI50 [8] was 0.947 µM and 0.249 µM and the TGI [8] was 25.2 µM and 21.9 µM. The GI50 [9] was 0.508 µM and 0.249 µM, the TGI [9] was 20.7 µM and 14.8 µM and the TGI [10] was 31.7 µM and 32.7 µM. For the same molecule, the TGI [11] was 31.1 µM and 25.6 µM, the GI50 [12] was 5.84 µM and 2.53 µM and the TGI [12] was 20.3 µM and 9.55 µM. The TGI [13] was 28.5 µM and 32.3 µM, the GI50 [14] was 0.0446 µM and the TGI [14] was 15 µM. For the same molecule, the GI50 [15] was 19.7 µM and 4.68 µM, the TGI [15] was 45.5 µM and 35.3 µM and the TGI [16] was 46 µM and 39.4 µM. The TGI [17] was 32 µM and 29.3 µM, the TGI [18] was 41.3 µM and 27.7 µM and the TGI [19] was 41.3 µM and 27.4 µM. The GI50 [20] was 14.9 µM and 6.93 µM, the TGI [20] was 31.5 µM and 24.4 µM and the TGI [21] was 30.4 µM and 30.3 µM. The TGI [22] was 68.5 µM and 39.8 µM, the TGI [23] was 32.7 µM and 26.7 µM and the TGI [24] was 13.6 µM. The TGI [25] was 33 µM and 24.6 µM, the TGI [26] was 22.9 µM and the TGI [27] was 24.8 µM and 22.4 µM. For the same molecule, the TGI [28] was 27.3 µM and 24 µM, the TGI [29] was 21.5 µM and 22.1 µM and the TGI [30] was 33.7 µM and 22.1 µM. For the same molecule, the TGI [31] was 31.6 µM and 32.6 µM, the GI50 [32] was 3.03 µM and 0.59 µM and the TGI [32] was 31 µM and 18.4 µM. For the same molecule, the GI50 [33] was 17.1 µM and 5.78 µM, the TGI [33] was 33.3 µM and 13.6 µM and the TGI [34] was 33.1 µM and 30.8 µM. The GI50 [35] was 11.2 µM and 2.41 µM, the TGI [35] was 29.3 µM and 30.4 µM and the TGI [36] was > 78.7 µM and 49.5 µM. The GI50 [37] was 2.96 µM and 0.842 µM, the TGI [37] was 21.9 µM and 15.1 µM and the GI50 [38] was 3.3 µM and 1.38 µM. The TGI [38] was 15.1 µM and 5.79 µM, the GI50 [39] was 23.6 µM and 10 µM and the TGI [39] was 44.2 µM and 33.6 µM. For the same molecule, the TGI [40] was 0.22 µM, the TGI [41] was 31 µM and 26.4 µM and the TGI [42] was 24 µM and 26.4 µM. For the same molecule, the TGI [43] was 28.4 µM and 22.6 µM, the TGI [44] was 28.7 µM and 24.6 µM and the TGI [45] was 35.1 µM and 29 µM. For the same molecule, the GI50 [46] was 3.48 µM and 0.936 µM, the TGI [46] was 32.6 µM and 22.3 µM and the TGI [47] was 16.2 µM and 16.6 µM. The GI50 [48] was 7.81 µM and 1.71 µM, the TGI [48] was 39 µM and 17.3 µM and the TGI [49] was 9.01 µM and 29.7 µM. The TGI [50] was 51.9 µM and 78.7 µM, the GI50 [51] was 5.61 µM and 15.4 µM and the TGI [51] was 23.3 µM and 37.5 µM. The TGI [52] was 34.6 µM and 47.1 µM, the TGI [53] was 36.1 µM and 53.3 µM and the GI50 [54] was 0.652 µM and 0.278 µM. The TGI [54] was 36.4 µM and 10.4 µM, the TGI [55] was 50.3 µM and 49.6 µM and the TGI [56] was 1.81 µM and 1.38 µM. The GI50 [57] was 0.302 µM, the TGI [57] was 24.7 µM and 27.8 µM and the TGI [58] was 34.7 µM and 39.6 µM.
`CCCCCCCCCC1CC(=O)NCC(=O)NC(C(C)C)C(=O)NC(CC(C)C)C(=O)NC(C)C(=O)NC(C(C)C)C(=O)O1` (stereo not given) was tested, and the TGI [1] was > 100 µM, the TGI [2] was 49.8 µM and the TGI [3] was 68.9 µM. The TGI [4] was 53 µM, the TGI [5] was > 61.6 µM and the TGI [6] was > 96.2 µM. For the same molecule, the TGI [7] was > 100 µM, the TGI [8] was > 64 µM and the TGI [9] was 28.8 µM. The TGI [10] was 80.2 µM, the TGI [11] was > 100 µM and the TGI [12] was > 92.4 µM. The TGI [13] was 37 µM, the TGI [14] was > 69.1 µM and the TGI [15] was 35.2 µM. The TGI [16] was > 100 µM, the TGI [17] was 22.4 µM and the TGI [18] was 30.8 µM. The TGI [59] was 83.7 µM, the TGI [19] was > 74.9 µM and the TGI [20] was > 100 µM. The TGI [21] was > 100 µM, the TGI [22] was 41.9 µM and the TGI [23] was 25.4 µM. The TGI [24] was 18.2 µM, the TGI [25] was 18.2 µM and the TGI [26] was > 56.4 µM. The TGI [27] was 33.9 µM, the TGI [28] was 55 µM and the TGI [29] was > 66.3 µM. The TGI [30] was > 100 µM, the TGI [31] was 39.2 µM and the TGI [32] was 40.9 µM. For the same molecule, the TGI [33] was 43.4 µM, the TGI [34] was > 38.6 µM and the TGI [35] was > 100 µM. For the same molecule, the TGI [36] was > 48.2 µM, the TGI [37] was 29.7 µM and the TGI [38] was > 52.4 µM. For the same molecule, the TGI [39] was > 61.9 µM, the TGI [40] was > 55.4 µM and the TGI [41] was 21.5 µM. For the same molecule, the TGI [42] was 35 µM, the TGI [43] was > 79.9 µM and the TGI [44] was > 100 µM. The TGI [45] was 36.6 µM, the TGI [46] was > 86.8 µM and the TGI [47] was 23.6 µM. For the same molecule, the TGI [48] was > 33.6 µM, the TGI [49] was > 100 µM and the TGI [50] was > 100 µM. The TGI [51] was 42.2 µM, the TGI [52] was > 65.8 µM and the TGI [53] was > 94.9 µM. The TGI [54] was > 53.3 µM, the TGI [55] was > 100 µM and the TGI [56] was > 100 µM. The TGI [57] was > 88 µM and the TGI [58] was 16.1 µM.
For `Cc1cc(N)ccc1C=O`, the TGI [1] was > 100 µM, the TGI [2] was > 100 µM and the TGI [3] was > 100 µM. The TGI [4] was > 100 µM, the TGI [5] was > 100 µM and the TGI [6] was > 100 µM. The TGI [7] was > 100 µM, the TGI [8] was > 100 µM and the TGI [9] was > 100 µM. For the same molecule, the TGI [10] was > 100 µM, the TGI [11] was > 100 µM and the TGI [12] was > 100 µM. For the same molecule, the TGI [14] was > 100 µM, the TGI [15] was > 100 µM and the TGI [16] was > 100 µM. The TGI [17] was > 100 µM, the TGI [18] was > 100 µM and the TGI [59] was > 100 µM. The TGI [19] was > 100 µM, the TGI [20] was > 100 µM and the TGI [21] was > 100 µM. For the same molecule, the TGI [22] was > 100 µM, the TGI [23] was > 100 µM and the TGI [24] was > 100 µM. The TGI [25] was > 100 µM, the TGI [26] was > 100 µM and the TGI [27] was > 100 µM. The TGI [28] was > 100 µM, the TGI [29] was > 100 µM and the TGI [30] was > 100 µM. The TGI [31] was > 100 µM, the TGI [32] was > 100 µM and the TGI [33] was > 100 µM. For the same molecule, the TGI [34] was > 100 µM, the TGI [35] was > 100 µM and the TGI [36] was > 100 µM. For the same molecule, the TGI [37] was > 100 µM, the TGI [38] was > 100 µM and the TGI [39] was > 100 µM. The TGI [40] was > 100 µM, the TGI [41] was > 100 µM and the TGI [42] was > 100 µM. For the same molecule, the TGI [43] was > 100 µM, the TGI [44] was > 100 µM and the TGI [45] was > 100 µM. The TGI [46] was > 100 µM, the TGI [47] was > 100 µM and the TGI [48] was > 100 µM. For the same molecule, the TGI [49] was > 100 µM, the TGI [50] was > 100 µM and the TGI [51] was > 100 µM. For the same molecule, the TGI [52] was > 100 µM, the TGI [53] was > 100 µM and the TGI [54] was > 100 µM. The TGI [55] was > 100 µM, the TGI [56] was > 100 µM and the TGI [57] was > 100 µM. The TGI [58] was > 100 µM.
